In data set [1] the test system is isolated guinea pig tracheal smooth muscles. As to the kind of experiment: Relaxant effect on histamine-induced contraction of isolated guinea pig tracheal smooth muscles. The note with it: Cavia porcellus; histamine 10^-5 mol/L contraction, relaxation as % of maximum response to papaverine 10^-4 mol/L; read-out: IC50(μmol/L), concentration required to 50% relaxation. On the procedure:
Guinea pigs were exsanguinated and the trachea was immediately isolated and cut into 2 to 3 cartilage ring segments to prepare tracheal ring preparations. The tracheal rings were suspended in 10 mL of Tyrode's solution bubbled with a gaseous mixture of 95% O2+5% CO2 at 37° C. The composition of the Tyrode's solution (mM) was as follows: NaCl 136.9, KCl 2.7, CaCl2 1.8, MgCl2 1.0, NaH2PO4 0.4, NaHCO3 11.9 and Gucose 5.6. The contractile response was measured by an isometric transducer (UM-203, KISHIMOTO) and recorded on a recorder ([…] SERVOCORDER SR6221). After about 1 hour incubation with 1.5 g of resting tention, histamine (10^−5 mol/L) was added to induce the contractile response. After confirming the response, the preparations were washed with Tyrode's solution (10 mL×3). Then indomethacin (10^−5 mol/L) was applied and the preparations were equilibrated for at least 30 min under 1.5 g tension. Subsequently, histamine (10^−5 mol/L) was applied. After the contraction reached a steady state, each compound was added in a cumulative manner (10^−8 mol/L-3×10^−5 mol/L). Each compound was prepared as a 10^−1 mol/L solution in DMSO, which was diluted with distilled water for use. After addition of test compounds, papaverine (10^−4 mol/L) was added to determine the maximum relaxation of the preparation. Relaxant response of test compounds were expressed as a percentage of the maximum response to papaverine. IC50 was defined as a concentration of the compound required to 50% relaxation. DMSO was used as a control.

The target in data set [2] is T1, PDE3A catalytic domain (PDE3Acat) (Homo sapiens, UniProt Q14432).
T1 construct: cDNA fragments of PDE3A catalytic domain (indicated as “cat,” hereinafter); made in house; host or cells: Sf9 insect cells (baculovirus, Bac-to-Bac)
T1 sequence (Q14432 674-1093 limits assumed): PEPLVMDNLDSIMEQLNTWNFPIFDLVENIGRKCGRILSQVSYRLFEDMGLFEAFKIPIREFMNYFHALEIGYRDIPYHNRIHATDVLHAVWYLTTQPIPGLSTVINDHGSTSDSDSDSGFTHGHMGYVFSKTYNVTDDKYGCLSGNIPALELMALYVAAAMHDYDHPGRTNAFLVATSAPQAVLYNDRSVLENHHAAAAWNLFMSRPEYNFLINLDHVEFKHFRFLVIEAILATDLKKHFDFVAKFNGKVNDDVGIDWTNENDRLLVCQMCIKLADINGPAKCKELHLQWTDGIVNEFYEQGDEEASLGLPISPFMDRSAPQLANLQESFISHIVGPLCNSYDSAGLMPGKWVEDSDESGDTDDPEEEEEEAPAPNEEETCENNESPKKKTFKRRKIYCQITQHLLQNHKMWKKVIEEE
As to the kind of experiment: Inhibition of phosphodiesterase activity, [3H]-cAMP hydrolysis, recombinant PDE3Acat. It counts as biochemical. The conditions noted are these: cAMP 2 μmol/L. On the procedure: (§1) RT-PCR was performed to isolate cDNA fragments of PDE3A catalytic domain (indicated as “cat,” hereinafter), PDE4Bcat, PDE5Acat and PDE10A1 from human RNA. Using Gateway system (Invitrogen) and Bac-to-Bac (registered trademark) Baculovirus Expression system (Invitrogen), the isolated cDNA fragments were transfected into Sf9 insect cells for expression of the PDE proteins. The recombinant PDE3Acat, PDE4Bcat, PDE5Acat and PDE10A1 proteins were isolated from culture supernatant or cell extracts of Sf9 cells expressed high levels of these proteins by ion-exchange chromatography and used for the following experiments.
(§2) 4 mmol/L solution of each test compound was serially diluted 4-fold with 15% DMSO solution to prepare the solutions with concentrations of 15 nmol/L to 4 mmol/L (final concentrations=1.5 nmol/L-400 μmol/L). 10 μL of each test compound solution was added to each well of 96 plate with 10 μL of [^3H]-cAMP or [^3H]-cGMP solution, diluted with a buffer (40 mmol/L Tris-HCl (pH 7.4), 10 mmol/L MgCl2) to the concentration shown in Table 20 and 40 μL of each of the human recombinant PDE proteins in units shown in Table 20. The plate was incubated at 30° C. for 20 min, and then at 65° C. for 2 min. Subsequently, 25 μL of 1 mg/mL 5′-nucleotidase (Crotalus atrox venom, Sigma) was added to each well and the plate was incubated at 30° C. for 10 min. 200 μL of Dowex solution (300 mg/mL Dowex 1×8-400 (Sigma Aldrich), 33% ethanol) was then added to each well and the plate was shaken at 4° C. for 20 min. Subsequently, 200 μL of MicroScint 20 (Packard) was added to each well and the radioactivity of each sample was measured by a scintillation counter (Topcount, Packard) IC50 was calculated by GraphPad Prism v3.03 (GraphPad Software).

Data set [3] addresses T2, PDE10A1 (Homo sapiens, UniProt Q9Y233).
T2 construct: made in house; host or cells: Sf9 insect cells (baculovirus, Bac-to-Bac)
As to the kind of experiment: Inhibition of phosphodiesterase activity, [3H]-cAMP hydrolysis, recombinant PDE10A1. It counts as biochemical. The note with it: human recombinant PDE10A1, cAMP 0.2 μmol/L; read-out: IC50(μmol/L) PDE10. On the procedure:
as §1, §2

The test system of data set [4] is histamine-induced bronchoconstriction. Kind of data set: Histamine-induced bronchoconstriction in guinea pigs. It counts as in vivo, guinea pig. The conditions noted are these: Cavia porcellus, iv, 0.5 min, 30 seconds after administration, histamine 12.5 μg/kg i.v.; for inhibition in vivo at 1 mg/kg: test compound 1 mg/kg i.v.; for inhibition in vivo at 0.1 mg/kg: values in brackets: test compound 0.1 mg/kg, i.v. On the procedure: Guinea pigs were anesthetized with pentobarbital (30 mg/kg, i.p.). A cannula for IV administeration, a cannula for collecting blood and measurement of blood pressure and a trachea cannula were inserted into the left exterior jugular vein, right interior carotid artery and trachea, respectively. The animals were placed under artificial respiration at 60 times/min and 10 mL/kg/stroke. The airflow through the branch of the tracheal cannula was measured by a bronchospasm transducer (Ugo-Basile) and recorded on a computer via Power Lab (ADInstruments Japan). The animals were immobilized with gallamine (10 mg/kg, i.v.), then administered histamine at 10-minute intervals (12.5 μg/kg, i.v.). […] To examine the inhibitory activity of test compound, the histamine-induced bronchoconstriction was measured after 30 seconds of drug administration. The bronchoconstriction was recorded as the change of the airflow: The results were shown by percentages of the maximum histamine-induced bronchoconstriction. Each test compound was prepared as a 10 mg/mL solution in DMSO. Gallamine was prepared as a 10 mg/mL solution in physiological saline. Histamine was prepared as a 1 mg/mL solution in physiological saline, which was diluted with physiological saline to 62.5 μg/mL for use.

Data set [5] has as its target PDE5Acat (Homo sapiens, UniProt O76074). Kind of data set: Inhibition of phosphodiesterase activity, [3H]-cGMP hydrolysis, recombinant PDE5Acat. It counts as biochemical. The conditions noted are these: cGMP 2 μmol/L, read-out: IC50(μmol/L) PDE5. On the procedure:
as §1, §2

In data set [6] the target is T3, PDE4Bcat (Homo sapiens, UniProt Q07343).
T3 construct: catalytic domain (indicated as “cat,” hereinafter), PDE4Bcat; made in house; host or cells: Sf9 insect cells (baculovirus, Bac-to-Bac)
T3 sequence (Q07343 330-659 limits assumed): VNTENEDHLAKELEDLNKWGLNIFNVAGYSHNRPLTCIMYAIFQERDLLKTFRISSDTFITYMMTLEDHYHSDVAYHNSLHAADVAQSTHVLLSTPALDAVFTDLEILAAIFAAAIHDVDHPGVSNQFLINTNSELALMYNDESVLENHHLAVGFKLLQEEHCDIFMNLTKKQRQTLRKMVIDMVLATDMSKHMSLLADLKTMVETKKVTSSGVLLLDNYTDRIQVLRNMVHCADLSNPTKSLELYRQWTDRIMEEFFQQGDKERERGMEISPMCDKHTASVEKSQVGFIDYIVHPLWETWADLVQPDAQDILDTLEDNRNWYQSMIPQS
As to the kind of experiment: Inhibition of phosphodiesterase activity, [3H]-cAMP hydrolysis, recombinant PDE4Bcat. It counts as biochemical. The conditions noted are these: cAMP 2 μmol/L, read-out: IC50(μmol/L) PDE4. The protocol: as §1, §2

[7] abbreviates: human recombinant PDE3Acat, read-out: IC50(μmol/L) PDE3.
Where [8] appears, read: IC50(μmol/L) PDE3, human recombinant PDE3Acat.

Molecules are shown by their SMILES. pIC50: −log10 of the molar value. Where two headings read alike, the source gives them in different places.

A word on the inhibition in vivo: it is the percentage by which the read-out fell short of the control. The low end stands for a response near the control, the high end for a response far below the control. By melting point is commonly meant the temperature of the solid-liquid transition.

T2 sequence (Q9Y233 1-779 isoform Q9Y233-1): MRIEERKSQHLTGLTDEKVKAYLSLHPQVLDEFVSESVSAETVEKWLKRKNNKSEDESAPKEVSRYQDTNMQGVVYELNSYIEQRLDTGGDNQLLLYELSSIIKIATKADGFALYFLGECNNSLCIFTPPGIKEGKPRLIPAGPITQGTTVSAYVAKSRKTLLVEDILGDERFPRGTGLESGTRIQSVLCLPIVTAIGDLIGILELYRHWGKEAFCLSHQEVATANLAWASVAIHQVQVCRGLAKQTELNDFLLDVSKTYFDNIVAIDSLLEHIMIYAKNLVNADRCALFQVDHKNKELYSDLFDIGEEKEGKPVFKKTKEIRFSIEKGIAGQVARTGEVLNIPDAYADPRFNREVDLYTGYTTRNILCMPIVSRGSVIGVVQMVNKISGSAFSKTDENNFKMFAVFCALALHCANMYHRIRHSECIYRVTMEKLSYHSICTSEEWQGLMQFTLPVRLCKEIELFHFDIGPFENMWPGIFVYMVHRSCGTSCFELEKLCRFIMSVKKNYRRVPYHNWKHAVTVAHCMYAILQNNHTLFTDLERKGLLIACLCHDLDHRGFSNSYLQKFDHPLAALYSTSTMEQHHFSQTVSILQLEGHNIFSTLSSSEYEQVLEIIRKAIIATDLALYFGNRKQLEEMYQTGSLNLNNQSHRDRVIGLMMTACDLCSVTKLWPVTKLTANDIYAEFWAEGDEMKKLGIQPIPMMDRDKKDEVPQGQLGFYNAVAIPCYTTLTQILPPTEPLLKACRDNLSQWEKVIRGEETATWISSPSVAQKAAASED

In the case of `CCc1cc2c(-c3ccc(=O)[nH]n3)cccn2n1` [Example 304], the pIC50 in data set [1] was 6.05; in data set [2] (setting [7]) it was 5.00 to 6.00; in data set [3], less than 5.00; in data set [5], less than 5.00; in data set [6], less than 5.00. In data set [4], the inhibition in vivo at 1 mg/kg was not below 90%.
In the case of `CCc1cc2c(C3=NNC(=O)CC3C)ccc(OC)n2n1` (stereo not drawn) [Example 216], the pIC50 is 6.19 in data set [1]; less than 5.00 in data set [2] (setting [8]); 5.00 to 6.00 in data set [3]; less than 5.00 in data set [5]; 6.00 to 7.00 in data set [6]. The same molecule gave an inhibition in vivo at 1 mg/kg in data set [4] not below 90%.
Take `CCc1cc2c(C3=NNC(=O)CC3C)cc(Cl)cn2n1` (stereo not drawn) [Example 311, 6-(6-chloro-2-ethyl-pyrazolo[1,5-a]pyridine-4-yl)-5-methyl-4,5-dihydro-3-(2H)-pyridazinone]: the melting point lay within 172 to 174 °C. In addition, the pIC50 in data set [1] is 5.70.
In turn, `CCc1cc2c(-c3n[nH]c(=O)cc3C)cccn2n1` [Example 305] returned a melting point of 229 to 231 °C.
In the case of `COc1ccc(C2=NNC(=O)CC2C)c2cc(C(F)(F)F)nn12` (single isomer, unassigned; (+)) [Example 317, (+)-6-(7-methoxy-2-trifluoromethyl-pyrazolo[1,5-a]pyridine-4-yl)-5-methyl-4,5-dihydro-3-(2H)-pyridazinone], the pIC50 in data set [1] is 6.90; in data set [2] (setting [7]) it was 6.00 to 7.00; in data set [3], 5.00 to 6.00; in data set [5], less than 5.00; in data set [6], more than 6.00. Also, in data set [4], the inhibition in vivo at 0.1 mg/kg was not below 90%.
On to `CCc1cc2c(C3=NNC(=O)CC3C)cc(Cl)cn2n1` (single isomer, unassigned; (+)) [Example 313, (+)-6-(6-chloro-2-ethyl-pyrazolo[1,5-a]pyridine-4-yl)-5-methyl-4,5-dihydro-3-(2H)-pyridazinone], for which the pIC50 in data set [1] is 6.30; in data set [2] (setting [7]), 5.00 to 6.00; in data set [3], 6.00 to 7.00; in data set [5], less than 5.00; in data set [6], 5.00 to 6.00. This molecule also had an inhibition in vivo at 1 mg/kg in data set [4] not below 90%.
With `CCc1cc2c(C3=NNC(=O)CC3C)ccc(OC)n2n1` (single isomer, unassigned; (-)) [Example 316, (−)-6-(2-ethyl-7-methoxy-pyrazolo[1,5-a]pyridine-4-yl)-5-methyl-4,5-dihydro-3-(2H)-pyridazinone], the pIC50 in data set [1] was 6.17; in data set [2] (setting [8]), less than 5.00; in data set [3], less than 5.00; in data set [5], less than 5.00; in data set [6], more than 6.00.
On to `COc1ccc(C2=NNC(=O)CC2C)c2cc(C(F)(F)F)nn12` (stereo not drawn) [205(211), 6-(7-methoxy-2-trifluoromethyl-pyrazolo[1,5-a]pyridine-4-yl)-4,5-dihydro-5-methyl-3-(2H)-pyridazinone], for which the pIC50 in data set [1] is 6.52; in data set [2] (setting [7]), 5.00 to 6.00; in data set [3], 5.00 to 6.00; in data set [5] it was less than 5.00; in data set [6], more than 6.00. In data set [4], this molecule registered an inhibition in vivo at 0.1 mg/kg not below 90%.
On to `CCc1cc2c(C3=NNC(=O)CC3C)cccn2n1` (stereo not drawn) [Example 201], for which the melting point lay within 231 to 233 °C. The pIC50 in data set [1] was 6.03. In addition, in data set [2] (setting [7]), the pIC50 was 5.00 to 6.00. Further, in data set [3], the pIC50 was 5.00 to 6.00. This molecule had an inhibition in vivo at 1 mg/kg in data set [4] not below 90%. Besides, in data set [5], the pIC50 was less than 5.00. Also, the pIC50 in data set [6] is less than 5.00.

The record behind these values is US7763617B2, “Pyrazolopyridine-4-yl pyridazinone derivatives and addition salts thereof, and PDE inhibitors comprising the same derivatives or salts as active ingredient” (Kyorin Pharmaceutical Co., Ltd., priority 2005, dated 2010).
